Tested on: rats (male, Wistar)
Experiment: Complete Freund's Adjuvant (CFA) model of inflammatory pain in rats
Type: in vivo
Settings: 30 mg/kg dose
Method: Representative compounds of the invention (i.e., test compounds) were tested in this model of inflammatory pain. The rats (male, Wistar) were acclimatized to the instruments (plantar test surface and dynamic plantar aesthesiometer) on two consecutive days prior to the initiation of the study. On Day 0, basal paw withdrawal latency and paw withdrawal threshold were taken and animals were randomized to different groups. Complete Freund's Adjuvant (CFA) at 1 mg/mL (0.1 mL) was injected into the plantar surface of right hind paw. Test compounds (3 or 30 mg/kg) were administered PO, twice (Day 0 and Day 1) or once, on Day 1 (24 h after CFA). Thermal hyperalgesia and mechanical allodynia were assessed at 0 (baseline), 1, 3 and 6 h after administration of the test compound on Day 1. Diclofenac was used as a reference compound, given once on Day 1.

Compound: C=C1CC[C@H]2[C@H](CN)[C@@H]([C@@]3(C)Cc4cn[nH]c4C[C@@H]3CO)CC[C@]12C [Ia-1, ((5R,6S)-5-((3aS,4R,5S,7aS)-4-(aminomethyl)-7a-methyl-1-methyleneoctahydro-1H-inden-5-yl)-5-methyl-4,5,6,7-tetrahydro-1H-indazol-6-yl)methanol]
- increase in the paw withdrawal threshold: 31%

From patent US11420962B2, “Indene derivatives useful in treating pain and inflammation” (TARO PHARMACEUTICALS INC., priority 2018, dated 2022)
